Reference: US7138361B2, “Herbicidal heterocycles” (E. I. du Pont de Nemours and Company, priority 2000, dated 2006)

Assays:
Format in all cases: in vivo
Nightshade = assay: Test C preemergence
Sunflower = assay: Test C preemergence; details: Rate 125 g/ha; scale 0 to 100, 0 no effect, 100 complete control
[1] = test system: Surinam grass (Brachiaria decumbens); assay: Test C preemergence
Summary of the method: (§1)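 Test chemicals, formulated in a non-phytotoxic solvent mixture with surfactant, were applied preemergence to planted seeds or postemergence to plants 2 to 18 cm tall (1- to 4-leaf stage). After 12 to 14 days in a greenhouse, injury was visually rated against untreated controls on a 0–100 scale.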

[2] = test system: bermudagrass (Cynodon dactylon); assay: Test C preemergence
Summary of the method: as §1

[3] = test system: cocklebur (Xanthium strumarium); assay: Test C preemergence
Summary of the method: as §1

[4] = test system: common ragweed (Ambrosia elatior); assay: Test C preemergence
Summary of the method: as §1

corn (Zea mays) = assay: Test C preemergence
Summary of the method: as §1

[5] = test system: crabgrass (Digitaria sanguinalis); assay: Test C preemergence
Summary of the method: as §1

[6] = test system: giant foxtail (Setaria faberii); assay: Test C preemergence
Summary of the method: as §1

[7] = test system: goosegrass (Eleusine indica); assay: Test C preemergence
Summary of the method: as §1

[8] = test system: johnsongrass (Sorghum halepense); assay: Test C preemergence
Summary of the method: as §1

kochia (Kochia scoparia) = assay: Test C preemergence
Summary of the method: as §1

[9] = test system: lambsquarters (Chenopodium album); assay: Test C preemergence
Summary of the method: as §1

[10] = test system: morningglory (Ipomoea hederacea); assay: Test C preemergence
Summary of the method: as §1

[11] = test system: pigweed (Amaranthus retroflexus); assay: Test C preemergence
Summary of the method: as §1

soybean (Glycine max) = assay: Test C preemergence
Summary of the method: as §1

[12] = test system: velvetleaf (Abutilon theophrasti); assay: Test C preemergence
Summary of the method: as §1

[13] = test system: woolly cupgrass (Eriochloa villosa); assay: Test C preemergence
Summary of the method: as §1

[14] = test system: yellow nutsedge (Cyperus esculentus); assay: Test C preemergence
Summary of the method: as §1

[15] = test system: barnyardgrass (Echinochloa crus-galli); assay: Test C flooded paddy test; details: for Barnyardgrass plant response rating: Flooded Paddy, scale 0 to 100, 0 no effect, 100 complete control; for Plant response rating, Barnyardgrass: flooded paddy test, scale 0 to 100 (0 no effect, 100 complete control)
Summary of the method: (§2)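 Ratings come from visual comparison with control plants after 12 to 14 days in the greenhouse. Each species was at the 2-leaf stage when the flooded paddy was treated. Scores run from 0, meaning no effect, to 100, meaning complete control.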

[16] = test system: duck salad (Heteranthera limosa); assay: Test C flooded paddy test; details: for Ducksalad plant response rating: Flooded Paddy, scale 0 to 100, 0 no effect, 100 complete control; for Plant response rating, Ducksalad: flooded paddy test, scale 0 to 100 (0 no effect, 100 complete control)
Summary of the method: as §2

[17] = test system: smallflower flatsedge (Cyperus difformis); assay: Test C flooded paddy test; details: for Flatsedge plant response rating: Flooded Paddy, scale 0 to 100, 0 no effect, 100 complete control; for Plant response rating, Flatsedge: flooded paddy test, scale 0 to 100 (0 no effect, 100 complete control)
Summary of the method: as §2

[18] = Rate 62 g/ha, scale 0 to 100, 0 no effect, 100 complete control
[19] = Rate 125 g/ha, scale 0 to 100, 0 no effect, 100 complete control
[20] = Rate 250 g/ha, scale 0 to 100, 0 no effect, 100 complete control
[21] = preemergence, Rate 31 g/ha, scale 0 to 100
[22] = preemergence, Rate 250 g/ha, visual evaluation after 12 to 14 days
[23] = preemergence, Rate 250 g/ha, scale 0 to 100, 0 no effect, 100 complete control
[24] = preemergence, Rate 62 g/ha, scale 0 to 100

CCC(CC)c1ccn(C2CCN(c3ccc(C)c(OC)c3)C2=O)n1 (stereo not drawn) [Compound 81]
Plant response rating, Nightshade (Nightshade; Rate 31 g/ha, scale 0 to 100): 70 | Plant response rating, Nightshade (Nightshade; [18]): 100 | Plant response rating, Nightshade (Nightshade; [19]): 100 | Plant response rating, Nightshade (Nightshade; [20]): 100 | Plant response rating, Sunflower (Sunflower): 0 | Plant response rating, Surinam grass [1, 18]: 20 | Plant response rating, Surinam grass [1, 19]: 50 | Plant response rating, Surinam grass [1, 21]: 0 | Plant response rating (0 to 100), Surinam grass [1, 22]: 100 | Plant response rating, Bermudagrass [2, 18]: 100 | Plant response rating, Bermudagrass [2, 19]: 100 | Plant response rating, Bermudagrass [2, 21]: 100 | Plant response rating (0 to 100 where 0 is no effect and 100 is complete control), Bermudagrass [2, 22]: 100 | Plant response rating, Cocklebur [3, 18]: 0 | Plant response rating, Cocklebur [3, 19]: 0 | Plant response rating, Cocklebur [3, 21]: 0 | Plant response rating (0 to 100), Cocklebur [3, 22]: 20 | Plant response rating, Ragweed, Common [4, 19]: 100 | Plant response rating, Ragweed, Common [4, 21]: 30 | Plant response rating, Ragweed, Common [4, 23]: 100 | Plant response rating, Corn (corn (Zea mays); [18]): 0 | Plant response rating, Corn (corn (Zea mays); [19]): 0 | Plant response rating, Corn (corn (Zea mays); [21]): 0 | Plant response rating (0 to 100), Corn (corn (Zea mays); [22]): 0 | Plant response rating, Crabgrass [5, 18]: 100 | Plant response rating, Crabgrass [5, 19]: 100 | Plant response rating, Crabgrass [5, 21]: 60 | Plant response rating (0 to 100), Crabgrass [5, 22]: 100 | Plant response rating, Foxtail, Giant [6, 18]: 90 | Plant response rating, Foxtail, Giant [6, 19]: 100 | Plant response rating, Foxtail, Giant [6, 21]: 30 | Plant response rating (0 to 100), Foxtail, Giant [6, 22]: 100 | Plant response rating, Goosegrass [7, 18]: 100 | Plant response rating, Goosegrass [7, 19]: 100 | Plant response rating, Goosegrass [7, 21]: 90 | Plant response rating (0 to 100), Goosegrass [7, 22]: 100 | Plant response rating, Johnsongrass [8, 18]: 0 | Plant response rating, Johnsongrass [8, 19]: 20 | Plant response rating, Johnsongrass [8, 21]: 0 | Plant response rating (0 to 100), Johnsongrass [8, 22]: 20 | Plant response rating, Kochia (kochia (Kochia scoparia); [18]): 100 | Plant response rating, Kochia (kochia (Kochia scoparia); [19]): 100 | Plant response rating, Kochia (kochia (Kochia scoparia); [21]): 100 | Plant response rating (0 to 100), Kochia (kochia (Kochia scoparia); [22]): 100 | Plant response rating, Lambsquarters [9, 18]: 100 | Plant response rating, Lambsquarters [9, 19]: 100 | Plant response rating, Lambsquarters [9, 21]: 100 | Plant response rating, Lambsquarters [9, 23]: 100 | Plant response rating, Morningglory [10, 18]: 0 | Plant response rating, Morningglory [10, 19]: 20 | Plant response rating, Morningglory [10, 21]: 0 | Plant response rating, Morningglory [10, 23]: 20 | Plant response rating, Pigweed [11, 19]: 100 | Plant response rating, Pigweed [11, 21]: 100 | Plant response rating, Pigweed [11, 23]: 100 | Plant response rating, Soybean (soybean (Glycine max); [21]): 30 | Plant response rating, Soybean (soybean (Glycine max); [23]): 100 | Plant response rating, Velvetleaf [12, 19]: 30 | Plant response rating, Velvetleaf [12, 21]: 0 | Plant response rating, Velvetleaf [12, 23]: 80 | Plant response rating, Cupgrass, Woolly [13, 18]: 30 | Plant response rating, Cupgrass, Woolly [13, 19]: 30 | Plant response rating, Cupgrass, Woolly [13, 21]: 0 | Plant response rating (0 to 100), Cupgrass, Woolly [13, 22]: 100 | Plant response rating, Nutsedge [14, 18]: 0 | Plant response rating, Nutsedge [14, 19]: 0 | Plant response rating, Nutsedge [14, 21]: 0 | Plant response rating, Nutsedge [14, 23]: 0 | Barnyardgrass plant response rating ([15]; Rate 250 g/ha): 90 | Barnyardgrass plant response rating ([15]; Rate 500 g/ha): 90 | Plant response rating, Barnyardgrass ([15]; Rate 62 g/ha): 20 | Plant response rating, Barnyardgrass ([15]; Rate 125 g/ha): 80 | Ducksalad plant response rating ([16]; Rate 250 g/ha): 90 | Ducksalad plant response rating ([16]; Rate 500 g/ha): 100 | Plant response rating, Ducksalad ([16]; Rate 62 g/ha): 80 | Plant response rating, Ducksalad ([16]; Rate 125 g/ha): 90 | Flatsedge plant response rating ([17]; Rate 250 g/ha): 90 | Flatsedge plant response rating ([17]; Rate 500 g/ha): 90 | Plant response rating, Flatsedge ([17]; Rate 62 g/ha): 90 | Plant response rating, Flatsedge ([17]; Rate 125 g/ha): 90

CCOc1cc(N2CCC(n3ccc(C(C)(C)C)n3)C2=O)ccc1C (stereo not drawn) [Compound 106]
Plant response rating, Nightshade (Nightshade; Rate 31 g/ha, scale 0 to 100): 100 | Plant response rating, Nightshade (Nightshade; Rate 62 g/ha, scale 0 to 100): 100 | Plant response rating, Nightshade (Nightshade; [19]): 100 | Plant response rating, Nightshade (Nightshade; [20]): 100 | Plant response rating, Sunflower (Sunflower): 80 | Plant response rating, Surinam grass [1, 19]: 90 | Plant response rating, Surinam grass [1, 21]: 30 | Plant response rating, Surinam grass [1, 24]: 90 | Plant response rating, Surinam grass [1, 23]: 100 | Plant response rating, Bermudagrass [2, 19]: 100 | Plant response rating, Bermudagrass [2, 21]: 100 | Plant response rating, Bermudagrass [2, 24]: 100 | Plant response rating, Bermudagrass [2, 23]: 100 | Plant response rating, Cocklebur [3, 19]: 90 | Plant response rating, Cocklebur [3, 21]: 70 | Plant response rating, Cocklebur [3, 24]: 90 | Plant response rating, Cocklebur [3, 23]: 100 | Plant response rating, Ragweed, Common [4, 19]: 100 | Plant response rating, Ragweed, Common [4, 21]: 80 | Plant response rating, Ragweed, Common [4, 24]: 100 | Plant response rating, Ragweed, Common [4, 23]: 100 | Plant response rating, Corn (corn (Zea mays); [19]): 0 | Plant response rating, Corn (corn (Zea mays); [21]): 0 | Plant response rating, Corn (corn (Zea mays); [24]): 0 | Plant response rating, Corn (corn (Zea mays); [23]): 40 | Plant response rating, Crabgrass [5, 19]: 100 | Plant response rating, Crabgrass [5, 21]: 100 | Plant response rating, Crabgrass [5, 24]: 100 | Plant response rating, Crabgrass [5, 23]: 100 | Plant response rating, Foxtail, Giant [6, 19]: 40 | Plant response rating, Foxtail, Giant [6, 21]: 0 | Plant response rating, Foxtail, Giant [6, 24]: 0 | Plant response rating, Foxtail, Giant [6, 23]: 100 | Plant response rating, Goosegrass [7, 19]: 100 | Plant response rating, Goosegrass [7, 21]: 100 | Plant response rating, Goosegrass [7, 24]: 100 | Plant response rating, Goosegrass [7, 23]: 100 | Plant response rating, Johnsongrass [8, 19]: 100 | Plant response rating, Johnsongrass [8, 21]: 30 | Plant response rating, Johnsongrass [8, 24]: 70 | Plant response rating, Johnsongrass [8, 23]: 100 | Plant response rating, Kochia (kochia (Kochia scoparia); [19]): 100 | Plant response rating, Kochia (kochia (Kochia scoparia); [21]): 100 | Plant response rating, Kochia (kochia (Kochia scoparia); [24]): 100 | Plant response rating, Kochia (kochia (Kochia scoparia); [23]): 100 | Plant response rating, Lambsquarters [9, 19]: 100 | Plant response rating, Lambsquarters [9, 21]: 100 | Plant response rating, Lambsquarters [9, 24]: 100 | Plant response rating, Lambsquarters [9, 23]: 100 | Plant response rating, Morningglory [10, 19]: 100 | Plant response rating, Morningglory [10, 21]: 80 | Plant response rating, Morningglory [10, 24]: 90 | Plant response rating, Morningglory [10, 23]: 100 | Plant response rating, Pigweed [11, 19]: 100 | Plant response rating, Pigweed [11, 21]: 70 | Plant response rating, Pigweed [11, 24]: 100 | Plant response rating, Pigweed [11, 23]: 90 | Plant response rating, Soybean (soybean (Glycine max); [19]): 100 | Plant response rating, Soybean (soybean (Glycine max); [21]): 80 | Plant response rating, Soybean (soybean (Glycine max); [24]): 100 | Plant response rating, Soybean (soybean (Glycine max); [23]): 100 | Plant response rating, Velvetleaf [12, 19]: 100 | Plant response rating, Velvetleaf [12, 21]: 90 | Plant response rating, Velvetleaf [12, 24]: 100 | Plant response rating, Velvetleaf [12, 23]: 100 | Plant response rating, Cupgrass, Woolly [13, 19]: 100 | Plant response rating, Cupgrass, Woolly [13, 21]: 60 | Plant response rating, Cupgrass, Woolly [13, 24]: 100 | Plant response rating, Cupgrass, Woolly [13, 23]: 100 | Plant response rating, Nutsedge [14, 19]: 80 | Plant response rating, Nutsedge [14, 21]: 10 | Plant response rating, Nutsedge [14, 24]: 10 | Plant response rating, Nutsedge [14, 23]: 100 | Barnyardgrass plant response rating ([15]; Rate 250 g/ha): 90 | Barnyardgrass plant response rating ([15]; Rate 500 g/ha): 100 | Plant response rating, Barnyardgrass ([15]; Rate 62 g/ha): 30 | Plant response rating, Barnyardgrass ([15]; Rate 125 g/ha): 50 | Ducksalad plant response rating ([16]; Rate 250 g/ha): 100 | Ducksalad plant response rating ([16]; Rate 500 g/ha): 100 | Plant response rating, Ducksalad ([16]; Rate 62 g/ha): 0 | Plant response rating, Ducksalad ([16]; Rate 125 g/ha): 0 | Flatsedge plant response rating ([17]; Rate 250 g/ha): 100 | Flatsedge plant response rating ([17]; Rate 500 g/ha): 100 | Plant response rating, Flatsedge ([17]; Rate 62 g/ha): 80 | Plant response rating, Flatsedge ([17]; Rate 125 g/ha): 90
